Source: patent US9631170B2, “Genetically inducible hydrogen peroxide resistance and production” (University of Wyoming, priority 2011, dated 2017)

Assays:
[1] = test system: Synechococcus elongatus PCC 7942; details: non-linear regression of dose response data, FIG. 11; wild type vs insertional katG null mutant
Protocol: These experiments generate dose response curves for growth versus H2O2-based algaecide concentration. […] EC50 for growth rate is determined from non-linear regression curves fitted to growth rate data from 5-7 experimental replicates at 5 to 7 stress doses. To fit curves, non-linear regressions are applied to the dose response data and the fit of the regression curve to the log-logistic equation will be F-tested.
One of these strains was a wild type (WT) and one was an insertional null mutant for the major cyanobacterial catalase encoded by the katG gene.

[2] = test system: plant chloroplasts; details: H2O2 concentrations as low as 10 μM; cited from earlier work

OO [H2O2, hydrogen peroxide]
resistance to exogenous H2O2 of wild type relative to katG null mutant lacking catalase activity [1]: ~2 fold | decrease of photosynthetic carbon fixation [2]: 50%
